Converted amounts (≈) assume the structure as drawn. Structures can show the parent of a compound that is named as a salt. Where two headings read alike, the source gives them in different places.

Our source for the MIC and LD50 values is patent US4990508A, “Pyridone carboxylic acid derivatives and salts thereof, process for producing the same and antibacterial agents comprising the same” (Toyama Chemical Co., Ltd., priority 1988, dated 1991).

For one data set, the system named is C. freundii N-7. Kind of data set: MIC, agar dilution, standard method of Japan Society of Chemotherapy. It counts as cell-based. The following applies: Citrobacter freundii. The method, then:
(§1) According to the standard method of Japan Society of Chemotherapy [CHEMOTHERAPY, 29 (1), 76-79 (1981)], a bacteria solution obtained by culturing in Heart Infusion broth (manufactured by Eiken Kagaku) at 37° C. for 20 hours was inoculated onto a Heart Infusion agar containing a drug and cultured at 37° C. for 20 hours, after which the growth of the bacteria was observed, to determine the minimum concentration at which the growth of the bacteria was inhibited as MIC (μg/ml). The amount of the inoculated bacteria was 10^4 cells/plate (10^6 cells/ml).
(Agar dilution tests growth on a series of plates holding different concentrations.)

The subject of another data set is E. coli NIHJ. The description is as above. It counts as cell-based. The settings on record: Escherichia coli, Heart Infusion agar, 37° C., 20 hours, 10^4 cells/plate (10^6 cells/ml). Here is the method:
as §1

The next data set concerns E. coli TK-111. The description is as above. It counts as cell-based. The following applies: Escherichia coli, TK111, Heart Infusion agar, 37° C., 20 hours, 10^4 cells/plate (10^6 cells/ml). Here is the method: as §1
A further data set deals with M. morganii T-216. Described as above. The data set is classed as cell-based. The settings on record: Morganella morganii, T216, Heart Infusion agar, 37° C., 20 hours, 10^4 cells/plate (10^6 cells/ml). Here is the method: as §1
Another data set has as its system P. mirabilis T-111. Described as above. The data set is classed as cell-based. The following applies: Proteus mirabilis, T111, Heart Infusion agar, 37° C., 20 hours, 10^4 cells/plate (10^6 cells/ml). The method, then:
as §1

The subject of another data set is S. marcescens W-134. The description is as above. It counts as cell-based. The settings on record: Serratia marcescens, W134, Heart Infusion agar, 37° C., 20 hours, 10^4 cells/plate (10^6 cells/ml). Here is the method:
as §1

A further data set has as its system K. pneumoniae Y-4*. The data set is described as above. The data set is classed as cell-based. The following applies: Klebsiella pneumoniae. The method, then: as §1
(§2) The asterisk in Table 1 means β-Lactamase-producing bacteria.

A further data set has as its system P. aeruginosa GN-918*. Described as above. The data set is classed as cell-based. The following applies: Pseudomonas aeruginosa. The method, then:
as §1, §2

Data set [1] can be described thus: Acute toxicity, intravenous, mice. The settings on record: mouse, in vivo, ICR strain male mice, 22±1 g, in 0.1N aqueous sodium hydroxide, read-out: 50% lethal dosage (LD50). Here is the method: A test compound was intravenously administered to a group of three ICR strain male mice each weighing 22±1 g to investigate the acute toxicity.
The test compound was dissolved in a 0.1N aqueous sodium hydroxide solution, and the resulting solution was applied.

The mark [2] stands for this setting: N7, C. freundii N-7, Heart Infusion agar, 37° C., 20 hours, 10^4 cells/plate (10^6 cells/ml), read-out: MIC.
[3] abbreviates: K. pneumoniae Y-4, β-Lactamase-producing, Heart Infusion agar, 37° C., 20 hours, 10^4 cells/plate (10^6 cells/ml), read-out: MIC.
Where [4] appears, read: GN918, P. aeruginosa GN-918, β-Lactamase-producing, Heart Infusion agar, 37° C., 20 hours, 10^4 cells/plate (10^6 cells/ml), read-out: MIC.

In the case of `CC[C@H]1COc2c(C3(N)CC3)c(F)cc3c(=O)c(C(=O)O)cn1c23.Cl` [Test Compound 7, (S)-10-(1-aminocyclopropyl)-3-ethyl-9-fluoro-7-oxo-2,3-dihydro-7H-pyrido[1,2,3-de][1,4]benzoxazine-6carboxylic acid hydrochloride], the MIC in the data set on C. freundii N-7 (setting [2]) was 0.1 µg/mL; against E. coli NIHJ, no more than 0.05 µg/mL; in the data set with E. coli TK-111 it was no more than 0.05 µg/mL; against M. morganii T-216, no more than 0.05 µg/mL; in the data set on P. mirabilis T-111 it was 0.2 µg/mL; in the data set on S. marcescens W-134 it was 0.1 µg/mL. In addition, the MIC in the data set with K. pneumoniae Y-4* (setting [3]) and in the data set on P. aeruginosa GN-918* (setting [4]) was 0.2 µg/mL in each case.

For `Cl.NC1(c2c(F)cc3c(=O)c(C(=O)O)cn4c3c2OCC4CF)CC1` (stereo not shown) [Test Compound 6, 10-(1-Aminocyclopropyl)-9-fluoro-3-fluoromethyl-7-oxo-2,3-dihydro-7H-pyrido[1,2,3-de][1,4]benzoxazine-6-carboxylic acid hydrochloride], the minimum inhibitory concentration (MIC) with C. freundii N-7 (setting [2]) was 0.1 µg/mL; against E. coli NIHJ, no more than 0.05 µg/mL; against E. coli TK-111, no more than 0.05 µg/mL; with M. morganii T-216, no more than 0.05 µg/mL; in the data set on P. mirabilis T-111, 0.1 µg/mL; in the data set with S. marcescens W-134, 0.1 µg/mL. The minimal inhibitory concentration (MIC) in the data set with K. pneumoniae Y-4* (setting [3]) and in the data set on P. aeruginosa GN-918* (setting [4]) was 0.2 µg/mL in each case.

Take `CC1COc2c(C3(N)CC3)c(F)cc3c(=O)c(C(=O)O)cn1c23.Cl` (stereo not shown) [Test Compound 1, 10-(1-Aminocyclopropyl)-9-fluoro-3-methyl-7-oxo-2,3-dihydro-7H-pyrido[1,2,3-de][1,4] benzoxazine-6carboxylic acid hydrochloride]: the MIC was no more than 0.05 µg/mL with C. freundii N-7 (setting [2]); no more than 0.05 µg/mL in the data set with E. coli NIHJ; no more than 0.05 µg/mL against E. coli TK-111; no more than 0.05 µg/mL in the data set on M. morganii T-216; 0.1 µg/mL with P. mirabilis T-111; 0.1 µg/mL in the data set with S. marcescens W-134. Besides, the MIC in the data set with K. pneumoniae Y-4* (setting [3]) and in the data set with P. aeruginosa GN-918* (setting [4]) was 0.2 µg/mL in each case.

`CC1COc2c(C3(N)CC3)c(F)c(O)c3c(=O)c(C(=O)O)cn1c23.Cl` (stereo not shown) [Test Compound 4, 10-(1-Aminocyclopropyl)-9-fluoro-8-hydroxy-3-methyl-7-oxo-2,3-dihydro-7H-pyrido[1,2,3-de][1,4]-benzoxazine-6-carboxylic acid hydrochloride]: the MIC in the data set with C. freundii N-7 (N7, 20 h) is 0.39 µg/mL; in the data set on E. coli NIHJ, no more than 0.05 µg/mL; against E. coli TK-111, no more than 0.05 µg/mL; with M. morganii T-216, no more than 0.05 µg/mL; against P. mirabilis T-111 it was 0.2 µg/mL; in the data set with S. marcescens W-134, 0.2 µg/mL. Moreover, the MIC in the data set with K. pneumoniae Y-4* (20 h) is 0.39 µg/mL; in the data set on P. aeruginosa GN-918* (setting [4]), 0.78 µg/mL.

With `C[C@H]1COc2c(C3(N)CC3)c(F)cc3c(=O)c(C(=O)O)cn1c23.Cl` [Test Compound 5, (S)-10-(1-aminocyclopropyl)-9-fluoro-3-methyl-7-oxo-2,3-dihydro-7H-pyrido[1,2,3-de][1,4]benzoxazine-6-carboxylic acid hydrochloride], the MIC in the data set with C. freundii N-7 (setting [2]), with E. coli NIHJ, against E. coli TK-111, in the data set with M. morganii T-216, in the data set with P. mirabilis T-111 and in the data set on S. marcescens W-134 was no more than 0.05 µg/mL in each case. For the same compound, the MIC is no more than 0.05 µg/mL in the data set on K. pneumoniae Y-4* (setting [3]) and 0.1 µg/mL with P. aeruginosa GN-918* (setting [4]). In addition, the median lethal dose (LD50) in data set [1] was greater than 1000 mg/kg.

In the case of `CC1COc2c(C3(N)CC3)c(F)c(N)c3c(=O)c(C(=O)O)cn1c23.Cl` (stereo not shown) [Test Compound 2, 8-Amino-10-(1-aminocyclopropyl)-9-fluoro-3-methyl-7-oxo-2,3-dihydro-7H-pyrido[1,2,3-de][1,4]-benzoxazine-6-carboxylic acid hydrochloride], the MIC is 0.1 µg/mL with C. freundii N-7 (setting [2]); no more than 0.05 µg/mL against E. coli NIHJ; no more than 0.05 µg/mL in the data set with E. coli TK-111; 0.1 µg/mL against M. morganii T-216; 0.39 µg/mL with P. mirabilis T-111; 0.2 µg/mL in the data set on S. marcescens W-134. In addition, the minimal inhibitory concentration (MIC) in the data set on K. pneumoniae Y-4* (20 h) is 0.39 µg/mL; in the data set on P. aeruginosa GN-918* (setting [4]) it was 0.78 µg/mL.

Take `Br.C=C1COc2c(C3(N)CC3)c(F)cc3c(=O)c(C(=O)O)cn1c23` [Test Compound 8, 10-(1-Aminocyclopropyl)-9-fluoro-3-methylene-7-oxo-2,3-dihydro-7H-pyrido[1,2,3-de][1,4]benzoxazine-6-carboxylic acid hydrobromide]: the minimal inhibitory concentration (MIC) in the data set on C. freundii N-7 (setting [2]) is 0.1 µg/mL; in the data set with E. coli NIHJ, 0.1 µg/mL; against E. coli TK-111 it was no more than 0.05 µg/mL; against M. morganii T-216, 0.1 µg/mL; in the data set with P. mirabilis T-111, 0.39 µg/mL; against S. marcescens W-134 it was 0.2 µg/mL. In addition, the MIC with K. pneumoniae Y-4* (setting [3]) turned out to be 0.2 µg/mL; in the data set on P. aeruginosa GN-918* (GN918, 20 h) it was 0.39 µg/mL.

For the compound `CC1CC1(N)c1c(F)cc2c(=O)c(C(=O)O)cn3c2c1OC[C@@H]3C.Cl` (stereo partly drawn) [Test Compound 10, (S)-10-(1-amino-2-methylcyclopropyl)-9-fluoro-3-methyl-7-oxo-2,3-dihydro-7H-pyrido[1,2,3-de][1,4]-benzoxazine-6-carboxylic acid hydrochloride], the minimal inhibitory concentration (MIC) in the data set with C. freundii N-7 (setting [2]) is no more than 0.05 µg/mL; with E. coli NIHJ, no more than 0.05 µg/mL; in the data set with E. coli TK-111, no more than 0.05 µg/mL; against M. morganii T-216, no more than 0.05 µg/mL; against P. mirabilis T-111 it was 0.2 µg/mL; in the data set on S. marcescens W-134 it was 0.1 µg/mL. Further, the MIC in the data set with K. pneumoniae Y-4* (setting [3]) and with P. aeruginosa GN-918* (setting [4]) was 0.2 µg/mL in each case.

On to `NC1(c2c(F)cc3c(=O)c(C(=O)O)cn4c3c2OCC42CC2)CC1` [Test Compound 9, 10'-(1-Aminocyclopropyl)-9'-fluoro-7+-oxospiro{cyclopropane-1,3'(2'H)-[7H]-pyrido[1,2,3-de][1,4]benzoxazine}-6'-carboxylic acid hydrochloride], for which the minimum inhibitory concentration (MIC) was 0.2 µg/mL in the data set on C. freundii N-7 (setting [2]); 0.1 µg/mL against E. coli NIHJ; no more than 0.05 µg/mL with E. coli TK-111; 0.1 µg/mL with M. morganii T-216; 0.39 µg/mL in the data set on P. mirabilis T-111; 0.2 µg/mL in the data set with S. marcescens W-134. In addition, the MIC came to 0.39 µg/mL against K. pneumoniae Y-4* (20 h) and 0.39 µg/mL in the data set on P. aeruginosa GN-918* (GN918, 20 h).

As to `CNC1(c2c(F)cc3c(=O)c(C(=O)O)cn4c3c2OC[C@@H]4C)CC1.Cl` [Test Compound 11, (S)-10-[1-(N-methylamino)cyclopropyl]-9-fluoro-3-methyl-7-oxo-2,3-dihydro-7H-pyrido[1,2,3-de][1,4]-benzoxazine-6-carboxylic acid hydrochloride], the MIC in the data set with C. freundii N-7 (setting [2]) is 0.1 µg/mL; in the data set with E. coli NIHJ it was no more than 0.05 µg/mL; with E. coli TK-111, no more than 0.05 µg/mL; against M. morganii T-216, no more than 0.05 µg/mL; with P. mirabilis T-111 it was 0.1 µg/mL; with S. marcescens W-134 it was 0.1 µg/mL. The MIC was found to be 0.1 µg/mL with K. pneumoniae Y-4* (setting [3]) and 0.2 µg/mL with P. aeruginosa GN-918* (setting [4]).

With `CC1COc2c(N3CCN(C)CC3)c(F)cc3c(=O)c(C(=O)O)cn1c23` (racemic) [Control compd., (±)9-Fluoro-2,3-dihydro-3-methyl-10-(4-methyl-1-piperazinyl)-7-oxo-7H-pyrido[1,2,3-de][1,4]benzoxazine-6carboxylic acid, reference compound], the minimal inhibitory concentration (MIC) in the data set on C. freundii N-7 (N7, 20 h) is 0.39 µg/mL (≈ 1.08 µM); against E. coli NIHJ, no more than 0.05 µg/mL; in the data set on E. coli TK-111 it was no more than 0.05 µg/mL; against M. morganii T-216, 0.1 µg/mL (≈ 0.277 µM); against P. mirabilis T-111 it was 0.39 µg/mL (≈ 1.08 µM); in the data set on S. marcescens W-134, 0.2 µg/mL (≈ 0.553 µM). Also, the values for the MIC against K. pneumoniae Y-4* (20 h) and in the data set with P. aeruginosa GN-918* (setting [4]) were 0.39 µg/mL (≈ 1.08 µM) and 3.13 µg/mL (≈ 8.66 µM), respectively.

In the case of `CC1COc2c(C3(N)CC3)c(F)c(F)c3c(=O)c(C(=O)O)cn1c23.Cl` (stereo not shown) [Test Compound 3, 10-(1-Aminocyclopropyl)-8,9-difluoro-3-methyl-7-oxo-2,3-dihydro-7H-pyrido[1,2,3-de][1,4]benzoxazine-6-carboxylic acid hydrochloride], the MIC with C. freundii N-7 (setting [2]) was 0.2 µg/mL; against E. coli NIHJ it was no more than 0.05 µg/mL; with E. coli TK-111, no more than 0.05 µg/mL; with M. morganii T-216, no more than 0.05 µg/mL; in the data set on P. mirabilis T-111, 0.2 µg/mL; in the data set on S. marcescens W-134, 0.2 µg/mL. For the same compound, the minimum inhibitory concentration (MIC) with K. pneumoniae Y-4* (20 h) came to 0.39 µg/mL; with P. aeruginosa GN-918* (setting [4]) it was 0.78 µg/mL.

Usually MIC stands for the least concentration at which growth counts as inhibited. By LD50 is commonly meant the dose at which mortality reaches 50%.
